In ChEMBL document CHEMBL5046281, “N-Aryl Mercaptopropionamides as Broad-Spectrum Inhibitors of Metallo-β-Lactamases” (J Med Chem, 2022):
The source made the active and inactive calls. The calls are words filed in the database; no cut-off is given here.

Legend:
[1] = test system: Escherichia coli; assay: Antibacterial activity against IMP-1 expressing Escherichia coli isolates assessed as inhibition of bacterial growth by microdilution method; assay type: functional, organism-based
[2] = test system: Escherichia coli; assay: Potentiation of imipenem-induced antibacterial activity against NDM-1 producing Escherichia coli assessed as fold change in imipenem MIC at 8 ug/ml by microdilution method; assay type: functional; settings: dose 8 µg/ml
[3] = test system: Acinetobacter baumannii; assay: Potentiation of imipenem-induced antibacterial activity against OXA-23 producing Acinetobacter baumannii T2434 clinical isolates assessed as imipenem MIC at 128 mg/l by microdilution method; assay type: functional
[4] = molecular target: T1, Interstitial collagenase (Homo sapiens) (UniProt P03956); assay: Inhibition of human MMP-1 at 100 uM relative to control
T1 sequence (whole entry): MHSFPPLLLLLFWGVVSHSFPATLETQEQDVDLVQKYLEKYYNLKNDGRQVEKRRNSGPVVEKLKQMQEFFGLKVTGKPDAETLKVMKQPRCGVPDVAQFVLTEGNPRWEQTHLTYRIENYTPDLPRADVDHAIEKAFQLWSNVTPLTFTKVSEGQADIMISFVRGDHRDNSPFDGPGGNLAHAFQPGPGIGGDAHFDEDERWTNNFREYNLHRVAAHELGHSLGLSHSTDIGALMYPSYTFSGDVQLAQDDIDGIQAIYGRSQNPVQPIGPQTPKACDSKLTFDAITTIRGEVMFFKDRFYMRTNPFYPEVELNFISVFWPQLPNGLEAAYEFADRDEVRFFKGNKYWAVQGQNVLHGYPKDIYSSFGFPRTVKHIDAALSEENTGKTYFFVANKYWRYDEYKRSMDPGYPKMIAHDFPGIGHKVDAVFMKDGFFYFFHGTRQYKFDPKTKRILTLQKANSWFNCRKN

[5] = test system: Escherichia coli; assay: Potentiation of imipenem-induced antibacterial activity against NDM-1 producing Escherichia coli assessed as fold change in imipenem MIC at 128 ug/ml by microdilution method; assay type: functional; settings: dose 128 µg/ml
[6] = (§1) Selectivity ratio of MIC for antibacterial activity against GIM-1 producing Enterobacter cloacae T2218 clinical isolates to MIC for potentiation of imipenem-induced antibacterial activity against GIM-1 producing Enterobacter cloacae T2218 clinical isolates assessed as imipenem MIC at 128 mg/l; assay type: functional
[7] = molecular target: Disintegrin and metalloproteinase domain-containing protein 17 (Homo sapiens) (UniProt P78536); assay: Inhibition of human TACE at 100 uM relative to control
Disintegrin and metalloproteinase domain-containing protein 17 (Homo sapiens), sequence (P78536 whole entry, the tested form may be a part): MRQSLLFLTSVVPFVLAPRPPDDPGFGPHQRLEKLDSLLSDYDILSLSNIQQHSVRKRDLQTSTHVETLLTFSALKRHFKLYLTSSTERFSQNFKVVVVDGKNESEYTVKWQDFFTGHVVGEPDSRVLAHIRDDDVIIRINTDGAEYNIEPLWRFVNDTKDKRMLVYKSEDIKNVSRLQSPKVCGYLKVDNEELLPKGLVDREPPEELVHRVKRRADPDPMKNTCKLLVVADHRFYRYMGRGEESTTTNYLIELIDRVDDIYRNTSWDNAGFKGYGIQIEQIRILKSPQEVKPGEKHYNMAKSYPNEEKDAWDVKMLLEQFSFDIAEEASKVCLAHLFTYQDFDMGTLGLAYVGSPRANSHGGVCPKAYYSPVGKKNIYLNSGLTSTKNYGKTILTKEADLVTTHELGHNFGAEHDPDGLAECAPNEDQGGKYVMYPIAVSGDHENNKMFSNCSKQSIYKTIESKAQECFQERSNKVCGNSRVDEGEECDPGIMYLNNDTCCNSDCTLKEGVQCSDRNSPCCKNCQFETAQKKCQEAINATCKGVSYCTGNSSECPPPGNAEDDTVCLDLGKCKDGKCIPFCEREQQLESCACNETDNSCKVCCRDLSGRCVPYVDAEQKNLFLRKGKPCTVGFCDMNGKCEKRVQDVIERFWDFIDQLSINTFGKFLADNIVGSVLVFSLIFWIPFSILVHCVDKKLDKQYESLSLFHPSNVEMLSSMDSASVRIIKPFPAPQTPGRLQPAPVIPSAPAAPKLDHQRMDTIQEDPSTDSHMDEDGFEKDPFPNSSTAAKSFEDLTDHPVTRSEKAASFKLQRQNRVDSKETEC

[8] = molecular target: Matrix metalloproteinase-14 (Homo sapiens, UniProt P50281); assay: Inhibition of human MMP-14
[9] = test system: Escherichia coli; assay: Potentiation of imipenem-induced antibacterial activity against NDM-1 producing Escherichia coli assessed as fold change in imipenem MIC at 32 ug/ml by microdilution method; assay type: functional; settings: dose 32 µg/ml
[10] = Inhibition of Escherichia coli NDM-1 using fluorocillin as substrate incubated for 30 mins by fluorescence based assay
[11] = test system: Escherichia coli; assay: Potentiation of imipenem-induced antibacterial activity against NDM-1 producing Escherichia coli assessed as imipenem MIC at 64 ug/ml by microdilution method (reference value: 128 ug/ml); assay type: functional; settings: dose 64 µg/ml
[12] = molecular target: BlaVIM-1 (Escherichia coli, UniProt Q8GDC1); assay: Inhibition of Escherichia coli VIM-1 using fluorocillin as substrate incubated for 30 mins by fluorescence based assay
[13] = test system: Pseudomonas aeruginosa; assay: Potentiation of imipenem-induced antibacterial activity against VIM-1 producing Pseudomonas aeruginosa T2357 clinical isolates assessed as imipenem MIC at 128 mg/l by microdilution method; assay type: functional
[14] = test system: HEK293; assay: Cytotoxicity against human HEK293 cells assessed as reduction in cell viability at 100 uM relative to control; assay type: toxicity, cell-based; settings: hek293, 100 µM
[15] = test system: Pseudomonas aeruginosa; assay: Potentiation of imipenem-induced antibacterial activity against IMP-1 producing Pseudomonas aeruginosa T2325 clinical isolates assessed as imipenem MIC at 128 mg/l by microdilution method; assay type: functional
[16] = test system: Escherichia coli; assay: Potentiation of imipenem-induced antibacterial activity against NDM-1 producing Escherichia coli assessed as fold change in imipenem MIC at 16 ug/ml by microdilution method; assay type: functional; settings: dose 16 µg/ml
[17] = test system: Escherichia coli; assay: Potentiation of imipenem-induced antibacterial activity against NDM-1 producing Escherichia coli assessed as imipenem MIC at 32 ug/ml by microdilution method (reference value: 128 ug/ml); assay type: functional; settings: dose 32 µg/ml
[18] = test system: Escherichia coli; assay: Potentiation of imipenem-induced antibacterial activity against NDM-1 producing Escherichia coli assessed as fold change in imipenem MIC at 2 ug/ml by microdilution method; assay type: functional; settings: dose 2 µg/ml
[19] = as §1, with “OXA-23” for “GIM-1”, “Acinetobacter baumannii T2434” for “Enterobacter cloacae T2218”; assay type: functional
[20] = test system: Escherichia coli; assay: Potentiation of imipenem-induced antibacterial activity against NDM-1 producing Escherichia coli assessed as imipenem MIC at 4 ug/ml by microdilution method (reference value: 128 ug/ml); assay type: functional; settings: dose 4 µg/ml
[21] = Selectivity ratio of MIC for antibacterial activity against NDM-1 producing Enterobacter cloacae T2311 clinical isolates to MIC for potentiation of imipenem-induced antibacterial activity against NDM-1 producing Enterobacter cloacae T2311 clinical isolates assessed as imipenem MIC at 128 mg/l; assay type: functional
[22] = test system: Escherichia coli; assay: Potentiation of imipenem-induced antibacterial activity against KPC-2 producing Escherichia coli T2435 clinical isolates assessed as imipenem MIC at 128 mg/l by microdilution method; assay type: functional
[23] = Selectivity ratio of MIC for antibacterial activity against NDM-5 producing Escherichia coli T2351 clinical isolates to MIC for potentiation of imipenem-induced antibacterial activity against NDM-5 producing Escherichia coli T2351 clinical isolates assessed as imipenem MIC at 128 mg/l; assay type: functional
[24] = molecular target: 72 kDa type IV collagenase (Homo sapiens, UniProt P08253); assay: Inhibition of human MMP-2 at 100 uM relative to control
72 kDa type IV collagenase, sequence (P08253 110-660 limits assumed): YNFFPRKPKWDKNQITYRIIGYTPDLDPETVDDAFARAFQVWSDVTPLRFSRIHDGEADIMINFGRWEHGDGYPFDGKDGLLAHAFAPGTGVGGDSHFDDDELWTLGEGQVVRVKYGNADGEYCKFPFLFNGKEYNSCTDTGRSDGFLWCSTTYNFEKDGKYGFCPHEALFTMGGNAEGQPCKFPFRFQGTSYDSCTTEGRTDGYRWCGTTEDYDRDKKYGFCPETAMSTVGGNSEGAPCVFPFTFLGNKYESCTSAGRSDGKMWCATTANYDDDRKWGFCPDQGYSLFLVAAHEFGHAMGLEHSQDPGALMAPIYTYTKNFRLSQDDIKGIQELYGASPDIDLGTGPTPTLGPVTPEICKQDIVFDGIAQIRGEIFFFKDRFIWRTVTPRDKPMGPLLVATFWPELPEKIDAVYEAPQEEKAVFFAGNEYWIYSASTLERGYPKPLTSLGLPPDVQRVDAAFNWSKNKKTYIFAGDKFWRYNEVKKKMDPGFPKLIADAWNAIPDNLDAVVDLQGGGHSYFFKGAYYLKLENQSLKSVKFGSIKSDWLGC

[25] = Selectivity ratio of MIC for antibacterial activity against IMP-1 producing Pseudomonas aeruginosa T2325 clinical isolates to MIC for potentiation of imipenem-induced antibacterial activity against IMP-1 producing Pseudomonas aeruginosa T2325 clinical isolates assessed as imipenem MIC at 128 mg/l; assay type: functional
[26] = test system: Enterobacter cloacae; assay: Potentiation of imipenem-induced antibacterial activity against GIM-1 producing Enterobacter cloacae T2218 clinical isolates assessed as imipenem MIC at 128 mg/l by microdilution method; assay type: functional
[27] = test system: Enterobacter cloacae; assay: Potentiation of imipenem-induced antibacterial activity against NDM-1 producing Enterobacter cloacae T2311 clinical isolates assessed as imipenem MIC at 128 mg/l by microdilution method; assay type: functional
[28] = test system: Klebsiella pneumoniae; assay: Antibacterial activity against imipenem-resistant NDM-1-producing Klebsiella pneumoniae T2301 infected in Galleria mellonella larvae assessed as survival rate at 38.4 ug injected via proleg measured after 1 day by Kaplan-Meier method; assay type: functional; settings: dose 38.4 µg
[29] = test system: Escherichia coli; assay: Antibacterial activity against VIM-1 expressing Escherichia coli isolates assessed as inhibition of bacterial growth by microdilution method; assay type: functional, organism-based
[30] = Selectivity ratio of MIC for antibacterial activity against NDM-1 producing Serratia marcescens T2352 clinical isolates to MIC for potentiation of imipenem-induced antibacterial activity against NDM-1 producing Serratia marcescens T2352 clinical isolates assessed as imipenem MIC at 128 mg/l; assay type: functional

For `O=C(CCS)Nc1cccc(C(=O)O)c1`, the Activity [1] was “inactive”, the “fold change (FC)” value [2] was 2 and the MIC [3] was 32 µg/mL. The inhibition [4] was < 10%, the “fold change (FC)” value [5] was 256 and the Ratio [6] was 1. The inhibition [7] was < 10%, the IC50 [8] was 68 µM and the “fold change (FC)” value [9] was 16. It also gave an IC50 [10] of 4 µM, an MIC [11] of 2 µg/mL and an IC50 [12] of 1.2 µM. For the same molecule, the MIC [13] was 256 µg/mL, the Activity [14] was < 10% and the MIC [15] was 16 µg/mL. The “fold change (FC)” value [16] was 2, the MIC [17] was 8 µg/mL and the “fold change (FC)” value [18] was 1. The Ratio [19] was 1, the MIC [20] was 128 µg/mL and the Ratio [21] was 8. For the same molecule, the MIC [22] was 4 µg/mL, the Ratio [23] was 4 and the inhibition [24] was < 10%. The Ratio [25] was 1, the MIC [26] was 2 µg/mL and the MIC [27] was 1 µg/mL. The Activity [28] was <20%, the Activity [29] was “inactive” and the Ratio [30] was 64.
